Numbers after ± are expanded uncertainties.
Conditions: 101.33 kPa, Liquid; for viscosity: Capillary tube (Ostwald / Ubbelohde) method; for mass density: Pycnometric method

Q: With CCCCCCCCn1cc[n+](C)c1.O=S(=O)([O-])C(F)(F)C(F)F as the compound, how does the viscosity (298.15 K) read?
A: 279.4 ± 29 mPa·s

Q: What about the mass density (298.15 K) of the same compound?
A: 1233 ± 2 kg/m3

Q: What about the viscosity (323.15 K) of the same compound?
A: 79.8 ± 8.1 mPa·s

Q: And the mass density (323.15 K)?
A: 1215 ± 2 kg/m3

Q: And the viscosity (348.15 K)?
A: 32.5 ± 3.3 mPa·s

Q: What about the mass density (348.15 K) of the same compound?
A: 1196 ± 2 kg/m3

Q: What about the viscosity (373.15 K) of the same compound?
A: 15.3 ± 1.5 mPa·s

Q: And the mass density (373.15 K)?
A: 1176 ± 2 kg/m3

Q: For CCCCn1cc[n+](C)c1.N#CN=C=[N-] [1-butyl-3-methylimidazolium dicyanamide], which viscosity (298.15 K) is on record?
A: 30.1 ± 3.2 mPa·s

Q: What about the mass density (298.15 K) of the same compound?
A: 1065 ± 3 kg/m3

Q: What about the viscosity (323.15 K) of the same compound?
A: 13.5 ± 1.6 mPa·s

Q: And the mass density (323.15 K)?
A: 1050 ± 3 kg/m3

Q: And the viscosity (348.15 K)?
A: 7.7 ± 1.1 mPa·s

Q: What about the mass density (348.15 K) of the same compound?
A: 1036 ± 3 kg/m3

Q: What about the viscosity (373.15 K) of the same compound?
A: 4.9 ± 0.9 mPa·s

Q: What about the mass density (373.15 K) of the same compound?
A: 1026 ± 3 kg/m3

Q: Which viscosity (298.15 K) does the source give for CCCC[n+]1ccc(C)cc1.F[B-](F)(F)F [1-butyl-4-methylpyridinium tetrafluoroborate] here?
A: 205.5 ± 21 mPa·s

Q: And the mass density (298.15 K)?
A: 1185 ± 2 kg/m3

Q: And the viscosity (323.15 K)?
A: 52.7 ± 5.3 mPa·s

Q: What about the mass density (323.15 K) of the same compound?
A: 1171 ± 2 kg/m3

Q: What about the viscosity (348.15 K) of the same compound?
A: 21.3 ± 2.1 mPa·s

Q: What about the mass density (348.15 K) of the same compound?
A: 1154 ± 2 kg/m3

Q: What about the viscosity (373.15 K) of the same compound?
A: 10.5 ± 1.1 mPa·s

Q: What about the mass density (373.15 K) of the same compound?
A: 1144 ± 2 kg/m3

Source: the NIST ThermoML archive (doi:10.1016/j.fluid.2011.11.030)
